Consider 15 compounds from US4076725A, “Derivatives of streptovaricin ansamycins” (University of Illinois Foundation, priority 1976, dated 1978).

In brackets after ≈: the same amount, converted by molar mass.

The test system of assay [1] is reverse transcriptase (RNA-directed DNA polymerase). In words: Reverse transcriptase (RNA-directed DNA polymerase) inhibition. The assay is classed as biochemical. The conditions noted are these: concentration not given. The text has this: The assay and work-up conditions for reverse transcriptase analysis were essentially those described by Brockman, et al., (Nature, 230, 249 (1971)), except for eliminating the phosphate from the washing solution (10% trichloroacetic acid).

The next assay relates to AKR cells. In words: AKR growth inhibition (AKR cells in culture). The format is cell-based. The conditions noted are these: 37° C, 3 days, concentration not given. The method, then:
The assay for inhibition of AKR cells in culture was as follows. Four ml. of cells (ca. 1×10^4 cells/ml.) were pipetted into sterilized plastic culture tubes with screw caps (16×125 mm.; Falcon Plastics, Oxnard, California). The experiment was initiated by adding 1.0 ml. of medium or drug at different concentrations and incubating at 37° C for 3 days. Cell growth was determined twice a day for 3 days. The percent inhibition was calculated from the controls (no drug).

The next assay concerns the target E. coli RNA polymerase (Escherichia coli, UniProt P0A8V2). Put plainly: Bacterial RNA polymerase inhibition. The assay is classed as biochemical. The method, then:
The assay for bacterial RNA polymerase followed the procedure of Reusser (J. Bacterial., 105, 580 (1971)). Assay mixtures were prepared containing in a total volume of 0.25 ml.: Tris-hydrochloride buffer, pH 7.9, 5 μmoles; MgCl2, 1 μmole; mercaptoethanol, 3 μmoles; MnCl2, 0.25 μmole; guanosine triphosphate, cytidine triphosphate, uridine triphosphate, 0.1 μmole each; adenosine triphosphate 8-14C, 0.1 μmole containing 0.05 μCi; dAT, 0.2 units; polymerase, ~35 μg. The reaction mixtures were incubated at 30° C for 15 min.

The test system of another assay is S. lutea. In words: S. lutea bacterial inhibition (MIC, broth dilution). The assay is classed as cell-based. The conditions noted are these: Micrococcus luteus; 37°, 16-18 hours. The method, then: The assay for S. lutea inhibition was as follows. Water-soluble preparations were dissolved in brain heart infusion broth (Difco) to 1 mg./ml. Water-insoluble preparations were dissolved (or suspended) in dimethylformamide to 10 mg./ml. and diluted with brain heart broth to 1 mg./ml. Two-fold serial dilutions were made with broth starting with 1 mg./ml. with final volumes of 01. ml. per dilution. Overnight bacterial cultures were diluted 1:20,000 with brain heart and 0.1 ml. of diluted culture was added to each dilution of antibiotic (final total volume was 0.2 ml.). This was all done in plastic microtest plates (Microtest II Tissue Culture Plate, Bioquest). The plates were incubated at 37° for 16-18 hours and the minimum inhibitory concentrations (MIC) were recorded as the smallest concentration in which no visible growth occurred.

Another assay deals with B. subtilis. Put plainly: B. subtilis bacterial inhibition (paper disc, agar plate). The conditions noted are these: Bacillus subtilis, read-out: Zone (mm.) inhibition.
The subject of assay [2] is DNA-directed DNA polymerase. In words: DNA-directed DNA polymerase inhibition. The assay is classed as biochemical. Conditions: concentration not given. The method, then: The assay and work-up conditions for DNA polymerase were essentially those described by Magee (Virology, 17, 604 (1962)). The reaction mixture contained […]: potassium phosphate (pH 7.4), 15; EDTA, 2; ATP, 0.05; Mg^++, 2.5; triphosphates of CdR, deoxyguanosine, and AdR, 0.01 each; TdR triphosphate-^3 H, 0.01 (100 mCi/mmol.); DNase-treated E. coli DNA, 0.2 mg.; and cell sonicate, 0.2 mg. protein in a total volume of 0.5 ml. After incubation at 37° C for up to 60 minutes with continual gentle shaking, the reactions were stopped by the addition of carrier DNA […] and PCA (to 0.5 N) containing 2% Celite. The pellet was washed with PCA, dissolved in 1 N NaOH, reprecipitated and washed with PCA, extracted with 0.15 ml. 0.5 N PCA (70°) for 20 minutes, and counted in 12 ml. of Diotol.

E. coli RNA polymerase, sequence (P0A8V2 whole entry): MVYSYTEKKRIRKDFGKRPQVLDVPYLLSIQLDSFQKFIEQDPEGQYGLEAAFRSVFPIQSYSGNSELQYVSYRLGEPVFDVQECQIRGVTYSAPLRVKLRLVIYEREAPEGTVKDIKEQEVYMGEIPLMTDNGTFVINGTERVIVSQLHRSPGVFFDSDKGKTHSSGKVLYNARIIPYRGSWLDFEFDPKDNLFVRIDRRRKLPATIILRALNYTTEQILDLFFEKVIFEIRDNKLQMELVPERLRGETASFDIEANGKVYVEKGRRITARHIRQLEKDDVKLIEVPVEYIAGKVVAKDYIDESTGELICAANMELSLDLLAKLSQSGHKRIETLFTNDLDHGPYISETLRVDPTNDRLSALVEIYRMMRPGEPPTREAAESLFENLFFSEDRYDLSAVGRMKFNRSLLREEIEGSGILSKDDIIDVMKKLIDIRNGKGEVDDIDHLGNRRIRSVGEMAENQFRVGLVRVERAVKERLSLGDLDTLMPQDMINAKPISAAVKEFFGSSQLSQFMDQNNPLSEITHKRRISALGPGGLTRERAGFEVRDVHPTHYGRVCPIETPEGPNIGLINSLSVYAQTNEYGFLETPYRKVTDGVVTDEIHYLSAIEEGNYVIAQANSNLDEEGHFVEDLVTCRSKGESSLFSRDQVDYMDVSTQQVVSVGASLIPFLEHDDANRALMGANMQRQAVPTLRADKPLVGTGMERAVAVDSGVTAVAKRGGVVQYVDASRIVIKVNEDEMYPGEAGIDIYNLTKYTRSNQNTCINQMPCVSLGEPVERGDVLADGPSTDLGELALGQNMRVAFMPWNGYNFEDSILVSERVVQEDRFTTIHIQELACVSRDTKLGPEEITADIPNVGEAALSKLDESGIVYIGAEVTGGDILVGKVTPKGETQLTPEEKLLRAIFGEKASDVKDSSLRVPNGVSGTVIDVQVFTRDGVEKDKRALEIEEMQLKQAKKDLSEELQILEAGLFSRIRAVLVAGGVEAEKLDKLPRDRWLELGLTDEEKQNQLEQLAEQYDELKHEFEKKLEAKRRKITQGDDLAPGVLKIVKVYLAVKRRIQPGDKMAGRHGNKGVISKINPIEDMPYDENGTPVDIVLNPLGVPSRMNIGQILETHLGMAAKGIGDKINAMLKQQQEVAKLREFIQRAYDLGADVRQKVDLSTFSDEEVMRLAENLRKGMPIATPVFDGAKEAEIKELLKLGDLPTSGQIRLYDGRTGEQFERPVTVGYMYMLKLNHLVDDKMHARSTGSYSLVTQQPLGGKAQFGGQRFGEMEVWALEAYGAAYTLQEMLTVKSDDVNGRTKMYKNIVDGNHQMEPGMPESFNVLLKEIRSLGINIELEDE
E. coli RNA polymerase, sequence (P0A8T7 whole entry partner): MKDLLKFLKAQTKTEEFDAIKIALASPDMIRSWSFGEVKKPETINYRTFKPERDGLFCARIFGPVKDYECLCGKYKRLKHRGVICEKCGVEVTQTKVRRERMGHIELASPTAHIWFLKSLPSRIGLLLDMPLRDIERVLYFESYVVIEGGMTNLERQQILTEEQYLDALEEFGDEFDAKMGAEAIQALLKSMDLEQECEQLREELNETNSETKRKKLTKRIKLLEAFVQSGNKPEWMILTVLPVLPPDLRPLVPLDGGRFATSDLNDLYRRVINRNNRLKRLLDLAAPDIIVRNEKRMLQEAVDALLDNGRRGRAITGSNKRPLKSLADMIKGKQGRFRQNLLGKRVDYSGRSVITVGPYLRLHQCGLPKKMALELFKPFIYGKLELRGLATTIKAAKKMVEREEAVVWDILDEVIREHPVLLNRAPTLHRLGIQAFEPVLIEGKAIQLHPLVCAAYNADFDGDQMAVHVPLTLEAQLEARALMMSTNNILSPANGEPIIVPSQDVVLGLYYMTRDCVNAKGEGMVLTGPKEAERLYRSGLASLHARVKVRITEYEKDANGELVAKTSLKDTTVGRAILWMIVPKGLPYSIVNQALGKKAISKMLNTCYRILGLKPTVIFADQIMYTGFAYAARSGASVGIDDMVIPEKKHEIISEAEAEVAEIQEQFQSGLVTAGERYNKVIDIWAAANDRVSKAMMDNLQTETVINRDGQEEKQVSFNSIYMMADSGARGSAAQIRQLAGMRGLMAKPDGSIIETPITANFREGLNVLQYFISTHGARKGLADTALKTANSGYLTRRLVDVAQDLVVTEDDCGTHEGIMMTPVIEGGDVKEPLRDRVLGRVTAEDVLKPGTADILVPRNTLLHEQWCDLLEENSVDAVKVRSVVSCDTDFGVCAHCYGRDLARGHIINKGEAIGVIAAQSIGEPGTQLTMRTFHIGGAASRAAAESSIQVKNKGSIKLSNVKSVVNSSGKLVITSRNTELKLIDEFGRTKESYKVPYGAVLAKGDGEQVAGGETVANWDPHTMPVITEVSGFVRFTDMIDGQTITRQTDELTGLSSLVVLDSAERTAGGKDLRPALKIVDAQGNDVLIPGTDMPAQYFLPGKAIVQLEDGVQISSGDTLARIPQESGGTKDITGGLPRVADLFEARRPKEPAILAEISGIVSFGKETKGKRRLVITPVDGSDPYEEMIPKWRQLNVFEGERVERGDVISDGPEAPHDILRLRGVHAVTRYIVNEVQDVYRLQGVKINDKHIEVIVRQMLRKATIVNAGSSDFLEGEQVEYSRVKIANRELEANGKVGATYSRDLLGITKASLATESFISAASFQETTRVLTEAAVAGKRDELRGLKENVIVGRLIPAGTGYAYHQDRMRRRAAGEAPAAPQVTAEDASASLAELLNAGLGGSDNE
E. coli RNA polymerase, sequence (P0A7Z4 whole entry partner): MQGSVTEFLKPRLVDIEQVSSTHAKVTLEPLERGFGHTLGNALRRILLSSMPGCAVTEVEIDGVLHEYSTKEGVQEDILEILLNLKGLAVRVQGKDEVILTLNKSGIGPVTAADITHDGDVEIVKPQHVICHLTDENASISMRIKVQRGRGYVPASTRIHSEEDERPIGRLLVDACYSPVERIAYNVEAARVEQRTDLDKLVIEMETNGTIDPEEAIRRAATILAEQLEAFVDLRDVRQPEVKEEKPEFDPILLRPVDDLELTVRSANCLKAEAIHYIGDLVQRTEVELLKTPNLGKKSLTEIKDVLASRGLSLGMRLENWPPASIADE
E. coli RNA polymerase, sequence (P0A800 2-91 partner limits assumed): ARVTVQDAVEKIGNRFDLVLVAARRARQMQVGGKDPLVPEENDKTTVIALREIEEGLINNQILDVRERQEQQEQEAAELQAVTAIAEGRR
Procedure for B. subtilis: The assay for B. subtilis bacterial inhibition was obtained on plates with B. subtilis UC 564 spores in agar with the following composition per liter:
After autoclaving, 10 ml. of 20% glucose was added. The seeding rate was approximately 10^9 spores per liter. Test solutions were applied to 1/2-inch paper discs (Schleicher & Schuell 740E) with 0.08 ml. per disc.

In the case of `COC(=O)C(C(O)C(C)C=O)C(OC(C)=O)C(C)C(O)C(C)(O)C=C(C)C1=C2C(=C(C)C(=O)c3c(O)c(NC(=O)C(C)=CC=CC(C)=O)c(C)c(OC(C)=O)c32)OCO1` (centres unmarked) [Isostreptoval A], the “% inhibition” value is given as 7.8% in assay [1], 10.7% in the assay on AKR cells and 21% at E. coli RNA polymerase (0.1 μmole/ml.). The compound also had an MIC in the assay on S. lutea of 80 µg/mL (≈ 96.9 µM). Further, the zone of inhibition at 250 µM with B. subtilis came to 16 mm.

`COC(=O)C(C(O)C(C)C=O)C(O)C(C)C(O)C(C)(O)C=C(C)C1=C2C(=C(C)C(=O)c3c(O)c(NC(=O)C(C)=CC=CC(C)=O)c(C)c(OC(C)=O)c32)OCO1` (centres unmarked) [Isostreptoval G]: the “% inhibition” value on E. coli RNA polymerase (0.1 μmole/ml.) is on record as 52%.

For `CC(=O)C=CC=C(C)C(=O)Nc1c(C)c(OC(C)=O)c2c(c1O)C(=O)C(C)=C1OCOC(C(C)=CC(C)=O)=C12` [Prestreptovarone], the “% inhibition” value in assay [1] is on record as 60.1%; in assay [2] it was 35.4%; on E. coli RNA polymerase (0.1 μmole/ml.), 0%.

On to `COC(=O)C1C(OC(C)=O)C(C)C(O)OC1C(C)C(O)C(C)(O)C=CC=C(C)C(=O)Nc1c(C)c(OC(C)=O)c2c(c1O)C(=O)C(C)=C1OCOC(C(C)=CC(C)=O)=C12` (centres unmarked) [Streptoval A], for which the “% inhibition” value stood at 100.0% in assay [1] and 35% at E. coli RNA polymerase (0.1 μmole/ml.). Besides, in the assay on S. lutea, the minimum inhibitory concentration (MIC) is 80 µg/mL (≈ 96.9 µM). Further, the zone of inhibition at 250 µM with B. subtilis was 17 mm.

With `COC(=O)C1C(OC(C)=O)C(C)C(O)OC1C(C)C(O)C(C)C=CC=C(C)C(=O)Nc1c(C)c(OC(C)=O)c2c(c1O)C(=O)C(C)=C1OCOC(C(C)=CC(C)=O)=C12` (centres unmarked) [Streptoval B], in assay [1], the “% inhibition” value is 99.0%.

For the compound `COC(=O)C1C(OC(C)=O)C(C)C(OC(C)=O)OC1C(C)C(OC(C)=O)C(C)C=CC=C(C)C(=O)Nc1c(C)c(OC(C)=O)c2c(c1O)C(=O)C(C)=C1OCOC(C(C)=CC(C)=O)=C12` (centres unmarked) [Streptoval C Triacetate-A], the “% inhibition” value in assay [1] amounted to 86.2%.

With `COC(=O)C(C(OC(C)=O)C(C)C=O)C(OC(C)=O)C(C)C(OC(C)=O)C(C)C=CC=C(C)C(=O)Nc1c(C)c(OC(C)=O)c2c(c1O)C(=O)C(C)=C1OCOC(C(C)=CC(C)=O)=C12` (centres unmarked) [Streptoval C Triacetate-B], the “% inhibition” value in assay [1] is 97.3%.

Consider `COC(=O)C1C(O)C(C)C(O)OC1C(C)C(O)C(C)C=CC=C(C)C(=O)Nc1c(C)c(OC(C)=O)c2c(c1O)C(=O)C(C)=C1OCOC(C(C)=CC(C)=O)=C12` (centres unmarked) [Streptoval C], for which the results for the “% inhibition” value (in assay [1]; in assay [2]; in the assay with AKR cells) were 84.0%, 9.2% and 2.1%, respectively. In the assay with B. subtilis, the zone of inhibition at 250 µM amounted to 0 mm.

`COC(=O)C1C(O)C(C)C(O)OC1C(C)C(=O)C(C)C=CC=C(C)C(=O)Nc1c(C)c(OC(C)=O)c2c(c1O)C(=O)C(C)=C1OCOC(C(C)=CC(C)=O)=C12` (centres unmarked) [Streptoval E]: the “% inhibition” value in assay [1] amounted to 95.7%; at E. coli RNA polymerase (0.1 μmole/ml.), 7%. In the assay on S. lutea, this compound came in with an MIC of 75 µg/mL (≈ 97.9 µM). Moreover, the zone of inhibition at 250 µM in the assay with B. subtilis was found to be 0 mm.

`CC(=O)C=C(C)C1=C2C(=C(C)C(=O)c3c(O)c(NC(=O)C(C)=CC=CC(C)(O)C4OC(=O)C5C(O)C(C)C(O)OC5C4C)c(C)c(OC(C)=O)c32)OCO1` (centres unmarked) [Streptoval F]: the “% inhibition” value in assay [1] came out at 8.3%.

With `COC(=O)C1C(OC(C)=O)C(C)C(OC(C)=O)C(C)(O)C=CC=C(C)C(=O)Nc2c(C)c(OC(C)=O)c3c(c2O)C(=O)C(C)=C2OCOC(=C23)C(C)=CC(C)(O)C(OC(C)=O)C(C)C1OC(C)=O` (centres unmarked) [Streptovaricin A Triacetate], the “% inhibition” value in assay [1] is reported as 76.0%.

As to `COC(=O)C1C(OC(C)=O)C(C)C(OC(C)=O)C(C)C=CC=C(C)C(=O)Nc2c(C)c(OC(C)=O)c3c(c2O)C(=O)C(C)=C2OCOC(=C23)C(C)=CC(C)(O)C(OC(C)=O)C(C)C1OC(C)=O` (centres unmarked) [Streptovaricin C Tetra-acetate], the “% inhibition” value in assay [1] came out at 80.0%.

Take `COC(=O)C1C(OC(C)=O)C(C)C(OC(C)=O)C(C)C=CC=C(C)C(=O)Nc2c(C)c(OC(C)=O)c3c(c2O)C(=O)C(C)=C2OCOC(=C23)C(C)=CC(C)(O)C(O)C(C)C1OC(C)=O` (centres unmarked) [Streptovaricin C Triacetate]: the “% inhibition” value in assay [1] is listed as 79.0%.

On to `COC(=O)C1C(O)C(C)C(O)C(C)C=CC=C(C)C(=O)Nc2c(C)c(OC(C)=O)c3c(c2O)C(=O)C(C)=C2OCOC(=C23)C(C)=CC(C)(O)C(O)C(C)C1O` (centres unmarked) [Streptovaricin C, reference compound], for which the “% inhibition” value worked out at 47.9% in assay [1], 0% in assay [2], 8.9% in the assay on AKR cells and 66% at E. coli RNA polymerase (0.01 μmole/ml. (Streptovaricin C)). Further, the zone of inhibition at 250 µM in the assay with B. subtilis worked out at 22 mm.

Take `CC(=O)C=C(C)C1=C2C(=C(C)C(=O)c3c(O)c(NC(=O)C(C)=O)c(C)c(OC(C)=O)c32)OCO1` [Streptovarone]: the “% inhibition” value in assay [1] was 59.4%; in assay [2] it was 12.2%; in the assay on AKR cells, 0.4%; on E. coli RNA polymerase (0.1 μmole/ml.) it was 0%. Besides, the zone of inhibition at 250 µM in the assay on B. subtilis amounted to 0 mm.
